This passage reports IC50 results from patent publication US8309551B2, “Pyrazolopyridine, indazole, imidazopyridine, imidazopyrimidine, pyrazolopyrazine and pyrazolopyridine derivatives as stimulators of guanylate cyclase for cardiovascular disorders” (Bayer Intellectual Property GmbH, priority 2006, dated 2012).

In the assay the test system is aorta rings. Nature of the assay: Vasorelaxant effect in vitro (phenylephrine-contracted rabbit aorta rings). To be noted: Oryctolagus cuniculus, read-out: IC50 (concentration necessary to reduce the level of contraction by 50%). On the procedure: B-1. Vasorelaxant Effect in Vitro
Rabbits are stunned by a blow to the back of the neck and are exsanguinated. The aorta is removed, freed of adherent tissue, divided into rings 1.5 mm wide and placed singly in 5 ml organ baths with carbogen-gassed Krebs-Henseleit solution of the following composition (in each case mM): NaCl: 119; KCl: 4.8; CaCl2×2 H2O: 1; MgSO4×7 H2O: 1.4; KH2PO4: 1.2; NaHCO3: 25; glucose: 10, under an initial tension at 37° C. The force of contraction is detected with Statham UC2 cells, amplified and digitized via A/D converters (DAS-1802 HC, Keithley Instruments Munich), and recorded in parallel on chart recorders. A contraction is induced by adding phenylephrine to the bath cumulatively in increasing concentration. After several control cycles, the substance to be investigated is added in each further run in increasing dosage each time, and the level of contraction is compared with the level of contraction achieved in the last preceding run. The concentration necessary to reduce the level of contraction by 50% (IC50) is calculated therefrom. The standard application volume is 5 μl, and the DMSO content in the bath solution corresponds to 0.1%.

The mark [1] stands for this setting: rabbit aorta rings, contraction induced by phenylephrine, 37° C., 0.1% DMSO.

SMILES strings stand for the structures. Where two headings read alike, the source gives them in different places.

On to `Nc1nc(N)nc(-n2nc(Cc3ccccc3F)c3ccccc32)n1` [Example 2, 6-[3-(2-Fluorobenzyl)-1H-indazol-1-yl]-1,3,5-triazine-2,4-diamine], for which the IC50 under setting [1] was 300 nM. For `Nc1nc(N)nc(-c2nc(Cc3ccccc3F)c3ncccn23)n1` [Example 4, 6-[8-(2-Fluorobenzyl)imidazo[1,5-a]pyrimidin-6-yl]-1,3,5-triazine-2,4-diamine], the IC50 came to 215 nM. Consider `Nc1nc(N)nc(-c2nc(Cc3ccccc3F)n3ccccc23)n1` [Example 3, 6-[3-(2-Fluorobenzyl)imidazo[1,5-a]pyridin-1-yl]-1,3,5-triazine-2,4-diamine], for which, under setting [1], the IC50 amounted to 2900 nM. For `Nc1cc(N)nc(-c2nc(Cc3ccccc3F)c3ncccn23)n1` [Example 7, 2-[8-(2-Fluorobenzyl)imidazo[1,5-a]pyrimidin-6-yl]pyrimidine-4,6-diamine], the IC50 came out at 1050 nM.

On to `Nc1nc(N)nc(-n2nc(Cc3ccccc3F)c3ncccc32)n1` [Example 1, 6-[3-(2-Fluorobenzyl)-1H-pyrazolo[4,3-b]pyridin-1-yl]-1,3,5-triazine-2,4-diamine], for which, under setting [1], the IC50 worked out at 240 nM.
